Earlier results as cited in patent publication US12503489B2, “Method for producing antibody-drug conjugate” (DAIICHI SANKYO COMPANY, LIMITED, priority 2017, dated 2025).

Biological target: T1, topoisomerase I (Homo sapiens, UniProt P11387)
T1 sequence (P11387 1-765): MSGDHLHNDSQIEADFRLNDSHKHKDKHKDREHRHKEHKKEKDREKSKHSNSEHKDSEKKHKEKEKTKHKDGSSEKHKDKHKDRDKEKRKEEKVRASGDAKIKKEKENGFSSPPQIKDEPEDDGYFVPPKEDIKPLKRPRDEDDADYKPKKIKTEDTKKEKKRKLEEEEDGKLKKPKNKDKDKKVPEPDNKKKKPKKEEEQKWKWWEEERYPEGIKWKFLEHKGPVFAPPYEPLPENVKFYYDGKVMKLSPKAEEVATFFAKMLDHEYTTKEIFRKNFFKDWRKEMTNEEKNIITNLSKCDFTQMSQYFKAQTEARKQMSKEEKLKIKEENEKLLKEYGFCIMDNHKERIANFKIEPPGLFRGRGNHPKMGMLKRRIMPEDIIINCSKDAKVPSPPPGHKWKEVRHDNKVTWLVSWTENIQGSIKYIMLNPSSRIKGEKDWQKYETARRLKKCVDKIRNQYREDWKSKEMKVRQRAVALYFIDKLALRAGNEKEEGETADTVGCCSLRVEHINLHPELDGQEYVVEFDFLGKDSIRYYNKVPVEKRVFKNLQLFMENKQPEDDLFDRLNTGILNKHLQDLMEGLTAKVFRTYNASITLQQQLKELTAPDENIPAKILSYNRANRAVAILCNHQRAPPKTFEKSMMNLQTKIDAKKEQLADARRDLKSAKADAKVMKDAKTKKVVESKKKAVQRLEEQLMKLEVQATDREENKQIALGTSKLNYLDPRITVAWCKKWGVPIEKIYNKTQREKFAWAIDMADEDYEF
Conditions: Ogitani Y. et al., Clinical Cancer Research 2016; 22 (20): 5097-5108

Compound: CC[C@@]1(O)C(=O)OCc2c1cc1n(c2=O)Cc2c-1nc1cc(F)c(C)c3c1c2[C@@H](NC(=O)CO)CC3 [formula (22)]
- topoisomerase I inhibitory effect: confirmed to have a topoisomerase I inhibitory effect
